This passage reports ED (20 mm Hg) results from patent publication EP0285287A2, “3-Benzazepine compounds for use in treating gastrointestinal motility disorders” (SMITHKLINE BECKMAN CORPORATION, priority 1987, dated 1988).

The test has as its system lower esophageal sphincter (LES). In words: Determination of LES pressure in the anesthetized dog. The class given is in vivo, dogs. As to conditions: Canis lupus familiaris, mean ED20 = dose which increases LES pressure 20 mm Hg (N>=3). On the procedure: Methods for Determination of LES Pressure in the Anesthetized Dog
Mongrel or beagle dogs, male and female, are anesthetized using sodium pentobarbital (35.0 mg/kg., i.v.). Sodium pentobarbital is then continuously infused (approximately 6.0 mg/kg/hr) to maintain deep anesthesia. Blood pressure is monitored via a catheter surgically implanted into the femoral artery and attached to a Gould-Statham P23ID transducer. A catheter is also implanted into the femoral vein to administer test drugs. Respiration is maintained by an endotracheal tube attached to a respirator. A continuously perfused manometric catheter system including a Dent sleeve to measure sphincter pressure (Dent, Gastroenterology 71:263-267, 1976) is inserted into the esophagus and positioned so that intraluminal pressure is recorded from the body of the esophagus, the lower esophageal sphincter (LES) and the fundus of the stomach. The Dent sleeve catheter is perfused at a rate of 0.5 ml of water per minute for each lumen of the catheter by using an Arndorfer Hydraulic Capillary Infusion System. A cannula is implanted into the gastric antrum to allow drainage of the perfusate solution and prevent intestinal distension. Continuous tracings of esophageal, LES and fundus pressure are monitored on a Grass Polygraph (Model 7D). Correct positioning of the Dent sleeve is verified by noting a high pressure zone at the LES and by administration of an intravenous dose of 5-HT (usually 10-15 mcg/kg) which contracts the LES while having little or no recordable effect on either the body of the esophagus or the fundus. After verification of placement of the sleeve, the animal is allowed to stabilize for approximately 30 minutes.
Compounds are administered intravenously or intraduodenally. In most cases, succeeding doses of the same or different compounds are given only after the LES pressure has returned to approximate pre-dosing baseline values. In all cases, the magnitude of change in LES pressure is determined from the baseline pressure immediately prior to each treatment to the maximum pressure during treatment. Since the compounds used usually produce an immediate effect on LES pressure, no pretreatment time prior to measurement is necessary during this testing.
Direct assay techniques are used to estimate an Effective Dose 20 (ED₂₀) for the test compound in individual animals. The mean ED₂₀ and 95% confidence limits are determined using the individual ED₂₀ values from a group of animals (N= ≧3) that received the same treatment. The ED₂₀ is the dose which increases LES pressure 20 mm Hg.

The mark [1] stands for this setting: intravenous, read-out: ED20 in mcg/kg i.v.
The mark [2] stands for this setting: intraduodenal, read-out: ED20 in mcg/kg i.d.

Where two headings read alike, the source gives them in different places.

Turning to `CN1CCc2cc(Sc3ccccc3)c([N+](=O)[O-])cc2CC1` [Compound 5, 3-methyl-7-nitro-8-phenylthio-2,3,4,5-tetrahydro-1H-3-benzazepine], the ED (20 mm Hg) under setting [1] came to 1200 µg/kg. Same read-out and setting: the result for `Oc1ccc2c(c1)CCNCC2` [Compound 4, 7-hydroxy-2,3,4,5-tetrahydro-1H-3-benzazepine] reads 348 µg/kg. Consider `CN1CCc2ccc(O)c(Sc3ccccc3)c2CC1` [Compound 1, 7-hydroxy-3-methyl-6-phenylthio-2,3 4,5-tetrahydro-1H-3-benzazepine], for which the ED (20 mm Hg) reads like this: under setting [2], 263 µg/kg; under setting [1], 63 µg/kg. Taken in the same sequence, the figures for `CN1CCc2cc(O)c(Sc3ccccc3)cc2CC1` [Compound 2, 8-hydroxy-3-methyl-7-phenylthio-2,3 4,5-tetrahydro-1H-3-benzazepine] were around 1000 µg/kg and 14 µg/kg.

Regarding `CSc1ccc2c(c1)CCN(C)CC2` [Compound 3, 3-methyl-7-methylthio-2,3,4,5-tetra-hydro-1H-3-benzazepine], the ED (20 mm Hg) runs as follows: under setting [2], 236 µg/kg; under setting [1], 273 µg/kg.
